ChEMBL document CHEMBL1201861, “Genomics of Drug Sensitity in Cancer screening data, Wellcome Trust Sanger Institute”
Where “and” joins values, the source holds several entries; their conditions need not be identical. Identical values can stand only once.

Legend:
Assay in all cases: cells
769-P = format: functional, cell-based, Homo sapiens
Description: SANGER: Inhibition of human 769-P cell growth in a cell viability assay.

COLO-678 = format: functional, cell-based, Homo sapiens
Description: SANGER: Inhibition of human COLO-678 cell growth in a cell viability assay.

KP-N-YN = format: functional, cell-based; conditions: Homo sapiens;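 also: growth inhibition of KP-N-YN cells, read out with a cell viability assay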
Description: SANGER: Inhibition of human KP-N-YN cell growth in a cell viability assay.

U-118-MG = format: functional, cell-based, Homo sapiens
Description: SANGER: Inhibition of human U-118-MG cell growth in a cell viability assay.

NB6 = format: functional, cell-based, Homo sapiens
Description: SANGER: Inhibition of human NB6 cell growth in a cell viability assay.

SK-MEL-24 = format: functional, cell-based; conditions: Homo sapiens;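 also: growth inhibition read out by a cell viability assay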
Description: SANGER: Inhibition of human SK-MEL-24 cell growth in a cell viability assay.

NCI-H510A = format: functional, cell-based; conditions: Homo sapiens;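 also: growth inhibition of NCI-H510A cells, read out with a cell viability assay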
Description: SANGER: Inhibition of human NCI-H510A cell growth in a cell viability assay.

VM-CUB-1 = format: functional, cell-based; conditions: Homo sapiens;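 also: cell viability assay measuring growth inhibition of the human VM-CUB-1 cell line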
Description: SANGER: Inhibition of human VM-CUB-1 cell growth in a cell viability assay.

NB10 = format: functional, cell-based, Homo sapiens;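 also: growth inhibition of NB10 cells, read out by a cell viability assay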
Description: SANGER: Inhibition of human NB10 cell growth in a cell viability assay.

JEG-3 = format: functional, cell-based, Homo sapiens;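 also: growth inhibition of human JEG-3 cells, read out with a cell viability assay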
Description: SANGER: Inhibition of human JEG-3 cell growth in a cell viability assay.

HCC38 = format: functional, cell-based, Homo sapiens;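 also: cell viability assay on the human HCC38 cell line, with IC50 marking the concentration that inhibits cell growth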
Description: SANGER: Inhibition of human HCC38 cell growth in a cell viability assay.

L-428 = format: functional, cell-based; conditions: Homo sapiens
Description: SANGER: Inhibition of human L-428 cell growth in a cell viability assay.

NB69 = format: functional, cell-based, Homo sapiens;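 also: growth inhibition of NB69 cells, determined by a cell viability assay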
Description: SANGER: Inhibition of human NB69 cell growth in a cell viability assay.

L-363 = format: functional, cell-based; conditions: Homo sapiens
Description: SANGER: Inhibition of human L-363 cell growth in a cell viability assay.

5637 = format: functional, cell-based, Homo sapiens
Description: SANGER: Inhibition of human 5637 cell growth in a cell viability assay.

NCI-H1650 = format: functional, cell-based, Homo sapiens;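 also: growth inhibition of human NCI-H1650 cells measured by a cell viability assay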
Description: SANGER: Inhibition of human NCI-H1650 cell growth in a cell viability assay.

HPAF-II = format: functional, cell-based, Homo sapiens;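 also: growth inhibition of HPAF-II cells, read out with a cell viability assay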
Description: SANGER: Inhibition of human HPAF-II cell growth in a cell viability assay.

GAK = format: functional, cell-based, Homo sapiens;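 also: cell growth inhibition read out by a cell viability assay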
Description: SANGER: Inhibition of human GAK cell growth in a cell viability assay.

GOTO = format: functional, cell-based, Homo sapiens;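 also: growth inhibition of GOTO cells, read out by a cell viability assay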
Description: SANGER: Inhibition of human GOTO cell growth in a cell viability assay.

HT-144 = format: functional, cell-based, Homo sapiens
Description: SANGER: Inhibition of human HT-144 cell growth in a cell viability assay.

ML-2 = format: functional, cell-based; conditions: Homo sapiens;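 also: growth inhibition of ML-2 cells, measured with a cell viability readout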
Description: SANGER: Inhibition of human ML-2 cell growth in a cell viability assay.

OMC-1 = format: functional, cell-based, Homo sapiens;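 also: growth inhibition of the OMC-1 cell line, measured by a cell viability assay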
Description: SANGER: Inhibition of human OMC-1 cell growth in a cell viability assay.

UMUC3 = format: functional, cell-based, Homo sapiens;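 also: growth inhibition of human UM-UC-3 cells, read out with a cell viability assay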
Description: SANGER: Inhibition of human UM-UC-3 cell growth in a cell viability assay.

CW-2 = format: functional, cell-based, Homo sapiens;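 also: growth inhibition of CW-2 cells, read out by a cell viability assay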
Description: SANGER: Inhibition of human CW-2 cell growth in a cell viability assay.

SK-MEL3 = format: functional, cell-based, Homo sapiens, SK-MEL-3;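 also: growth inhibition of human SK-MEL-3 cells, read out with a cell viability assay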
Description: SANGER: Inhibition of human SK-MEL-3 cell growth in a cell viability assay.

NB13 = format: functional, cell-based, Homo sapiens;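 also: cell viability readout measuring growth inhibition of human NB13 cells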
Description: SANGER: Inhibition of human NB13 cell growth in a cell viability assay.

FTC-133 = format: functional, cell-based, Homo sapiens
CAS-1 = format: functional, cell-based, Homo sapiens;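 also: growth inhibition of CAS-1 cells, measured with a cell viability assay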
Description: SANGER: Inhibition of human CAS-1 cell growth in a cell viability assay.

639-V = format: functional, cell-based, Homo sapiens;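 also: growth inhibition of 639-V cells, read out with a cell viability assay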
Description: SANGER: Inhibition of human 639-V cell growth in a cell viability assay.

C3A = format: functional, cell-based, Homo sapiens;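 also: growth inhibition of C3A human cells, quantified with a cell viability readout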
Description: SANGER: Inhibition of human C3A cell growth in a cell viability assay.

HOS = format: functional, cell-based, Homo sapiens;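 also: growth inhibition of human HOS cells, read out with a cell viability assay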
Description: SANGER: Inhibition of human HOS cell growth in a cell viability assay.

SCH = format: functional, cell-based, Homo sapiens;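 also: growth inhibition of human SCH cells, read out in a cell viability assay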
Description: SANGER: Inhibition of human SCH cell growth in a cell viability assay.

NCI-H526 = format: functional, cell-based; conditions: Homo sapiens;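 also: growth inhibition of the human NCI-H526 cell line, measured by a cell viability assay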
Description: SANGER: Inhibition of human NCI-H526 cell growth in a cell viability assay.

SK-MEL-30 = format: functional, cell-based; conditions: Homo sapiens;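 also: growth inhibition of SK-MEL-30 cells, determined with a cell viability assay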
Description: SANGER: Inhibition of human SK-MEL-30 cell growth in a cell viability assay.

SW1088 = format: functional, cell-based, Homo sapiens;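 also: growth inhibition of human SW1088 cells, read out by a cell viability assay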
Description: SANGER: Inhibition of human SW1088 cell growth in a cell viability assay.

SK-MES-1 = format: functional, cell-based, Homo sapiens;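 also: growth inhibition of human SK-MES-1 cells, read out with a cell viability assay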
Description: SANGER: Inhibition of human SK-MES-1 cell growth in a cell viability assay.

HCT-116 = format: functional, cell-based, Homo sapiens
Description: SANGER: Inhibition of human HCT-116 cell growth in a cell viability assay.

CAL-27 = format: functional, cell-based, Homo sapiens;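 also: Viability-based readout, IC50 reflecting inhibition of CAL-27 cell growth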
Description: SANGER: Inhibition of human CAL-27 cell growth in a cell viability assay.

NCI-H2052 = format: functional, cell-based, Homo sapiens;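 also: growth inhibition of NCI-H2052 cells, read out with a cell viability assay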
Description: SANGER: Inhibition of human NCI-H2052 cell growth in a cell viability assay.

NCI-H441 = format: functional, cell-based; conditions: Homo sapiens;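 also: growth inhibition of NCI-H441 cells, read out with a cell viability assay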
Description: SANGER: Inhibition of human NCI-H441 cell growth in a cell viability assay.

NCI-H69 = format: functional, cell-based; conditions: Homo sapiens;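 also: growth inhibition of the cell line, read out with a cell viability assay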
Description: SANGER: Inhibition of human NCI-H69 cell growth in a cell viability assay.

T47D = format: functional, cell-based, Homo sapiens;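 also: growth inhibition of human T47D cells, measured with a cell viability assay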
Description: SANGER: Inhibition of human T47D cell growth in a cell viability assay.

KU-19-19 = format: functional, cell-based, Homo sapiens
Description: SANGER: Inhibition of human KU-19-19 cell growth in a cell viability assay.

SW1710 = format: functional, cell-based, Homo sapiens;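 also: growth inhibition of SW1710 cells, determined with a cell viability assay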
Description: SANGER: Inhibition of human SW1710 cell growth in a cell viability assay.

COLO-320-HSR = format: functional, cell-based; conditions: Homo sapiens;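 also: growth inhibition of COLO-320-HSR cells, determined with a cell viability assay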
Description: SANGER: Inhibition of human COLO-320-HSR cell growth in a cell viability assay.

MFE-280 = format: functional, cell-based, Homo sapiens;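 also: growth inhibition of MFE-280 cells, determined with a cell viability readout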
Description: SANGER: Inhibition of human MFE-280 cell growth in a cell viability assay.

SW1463 = format: functional, cell-based, Homo sapiens;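 also: growth inhibition of SW1463 cells, determined with a cell viability assay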
Description: SANGER: Inhibition of human SW1463 cell growth in a cell viability assay.

D-542MG = format: functional, cell-based, Homo sapiens
Description: SANGER: Inhibition of human D-542MG cell growth in a cell viability assay.

EW-3 = format: functional, cell-based; conditions: Homo sapiens;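 also: cell viability assay read-out, IC50 reflects inhibition of growth of the EW-3 cells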
Description: SANGER: Inhibition of human EW-3 cell growth in a cell viability assay.

QIMR-WIL = format: functional, cell-based; conditions: Homo sapiens;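 also: growth inhibition of QIMR-WIL cells, read out with a cell viability assay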
Description: SANGER: Inhibition of human QIMR-WIL cell growth in a cell viability assay.

LS-513 = format: functional, cell-based, Homo sapiens
Description: SANGER: Inhibition of human LS-513 cell growth in a cell viability assay.

Detroit 562 = format: functional, cell-based, Homo sapiens;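 also: growth inhibition of human Detroit 562 cells, read out by a cell viability assay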
Description: SANGER: Inhibition of human Detroit562 cell growth in a cell viability assay.

Nc1ccn([C@@H]2O[C@H](CO)[C@@H](O)[C@@H]2O)c(=O)n1 [CYTARABINE]
IC50 (769-P; Homo sapiens, 769-P): 0.228 µM | IC50 (COLO-678; Homo sapiens, COLO-678): > 2 µM | IC50 (KP-N-YN): > 2 µM | IC50 (U-118-MG; Homo sapiens, U-118-MG): > 2 µM | IC50 (NB6; Homo sapiens, NB6): > 2 µM | IC50 (SK-MEL-24): > 2 µM | IC50 (NCI-H510A): 0.0683 µM | IC50 (VM-CUB-1): 0.533 µM | IC50 (NB10; Homo sapiens, NB10): 0.188 µM | IC50 (JEG-3; Homo sapiens, JEG-3): 0.431 µM | IC50 (HCC38; Homo sapiens, HCC38): 1.88 µM | IC50 (L-428): > 2 µM | IC50 (NB69; Homo sapiens, NB69): 0.0795 µM | IC50 (L-363): 1.34 µM | IC50 (5637; Homo sapiens): 0.501 µM | IC50 (NCI-H1650; Homo sapiens, NCI-H1650): > 2 µM | IC50 (HPAF-II; Homo sapiens, HPAF-II): > 2 µM | IC50 (GAK; Homo sapiens, GAK): > 2 µM | IC50 (GOTO; Homo sapiens, GOTO): 0.424 µM | IC50 (HT-144; Homo sapiens, HT-144): 1.23 µM | IC50 (ML-2): 0.27 µM | IC50 (OMC-1; Homo sapiens, OMC-1): 0.832 µM | IC50 (UMUC3; Homo sapiens, UMUC3): 0.342 µM | IC50 (CW-2; Homo sapiens, CW-2): 0.613 µM | IC50 (SK-MEL3; Homo sapiens, SK-MEL3): > 2 µM | IC50 (NB13; Homo sapiens, NB13): > 2 µM | IC50 (FTC-133; Homo sapiens, FTC-133): 1.39 µM | IC50 (CAS-1; Homo sapiens, CAS-1): > 2 µM | IC50 (639-V; Homo sapiens, 639-V): > 2 µM | IC50 (C3A; Homo sapiens, C3A): > 2 µM | IC50 (HOS; Homo sapiens, HOS): 0.518 µM | IC50 (SCH; Homo sapiens, SCH): > 2 µM | IC50 (NCI-H526): > 2 µM | IC50 (SK-MEL-30): > 2 µM | IC50 (SW1088; Homo sapiens, SW1088): > 2 µM | IC50 (SK-MES-1; Homo sapiens, SK-MES-1): 0.807 µM | IC50 (HCT-116; Homo sapiens, HCT-116): 0.245 µM | IC50 (CAL-27; Homo sapiens, CAL-27): 1.93 µM | IC50 (NCI-H2052; Homo sapiens, NCI-H2052): > 2 µM | IC50 (NCI-H441): > 2 µM | IC50 (NCI-H69): > 2 µM | IC50 (T47D; Homo sapiens, T47D): > 2 µM | IC50 (KU-19-19; Homo sapiens, KU-19-19): > 2 µM | IC50 (SW1710; Homo sapiens, SW1710): 1.73 µM | IC50 (COLO-320-HSR): > 2 µM | IC50 (MFE-280; Homo sapiens, MFE-280): > 2 µM | IC50 (SW1463; Homo sapiens, SW1463): > 2 µM | IC50 (D-542MG; Homo sapiens, D-542MG): > 2 µM | IC50 (EW-3): 0.83 µM | IC50 (QIMR-WIL): > 2 µM | IC50 (LS-513; Homo sapiens, LS-513): 0.38 µM | IC50 (Detroit 562; Homo sapiens, Detroit 562): > 2 µM

Cc1cc([C@@H](C)Nc2ccccc2C(=O)O)c2nc(N3CCOCC3)cc(=O)n2c1 [AZD-6482]
IC50 (769-P; 769-p): > 5.12 µM | IC50 (COLO-678; colo-678): > 5.12 µM | IC50 (KP-N-YN): > 5.12 µM | IC50 (U-118-MG; u-118-mg): > 5.12 µM and 3.26 µM | IC50 (NB6; nb6): > 5.12 µM | IC50 (SK-MEL-24): > 5.12 µM | IC50 (NCI-H510A): > 5.12 µM | IC50 (VM-CUB-1): > 5.12 µM | IC50 (NB10; Homo sapiens, NB10): > 5.12 µM | IC50 (NB10; nb10): > 5.12 µM | IC50 (JEG-3; jeg-3): > 5.12 µM | IC50 (HCC38; hcc38): > 5.12 µM | IC50 (L-428): > 5.12 µM | IC50 (NB69; Homo sapiens, NB69): > 5.12 µM | IC50 (NB69; nb69): > 5.12 µM | IC50 (L-363): > 5.12 µM | IC50 5637: > 5.12 µM | IC50 (5637; Homo sapiens): > 5.12 µM | IC50 (NCI-H1650; nci-h1650): > 5.12 µM | IC50 (HPAF-II; hpaf-ii): > 5.12 µM | IC50 (GAK; gak): > 5.12 µM | IC50 (GOTO; Homo sapiens, GOTO): > 5.12 µM | IC50 (GOTO; goto): > 5.12 µM | IC50 (HT-144; Homo sapiens, HT-144): > 5.12 µM | IC50 (HT-144; ht-144): > 5.12 µM | IC50 (ML-2): 3.56 µM | IC50 (OMC-1; omc-1): > 5.12 µM | IC50 (UMUC3; umuc3): > 5.12 µM | IC50 (CW-2; cw-2): > 5.12 µM | IC50 (SK-MEL3; Homo sapiens, SK-MEL3): > 5.12 µM | IC50 (SK-MEL3; sk-mel-3): > 5.12 µM | IC50 (NB13; Homo sapiens, NB13): > 5.12 µM | IC50 (NB13; nb13): > 5.12 µM | IC50 (FTC-133; ftc-133): > 5.12 µM | IC50 (CAS-1; Homo sapiens, CAS-1): > 5.12 µM | IC50 (CAS-1; cas-1): > 5.12 µM | IC50 (639-V; 639-v): 1.63 µM and 4.78 µM | IC50 (C3A; c3a): > 5.12 µM | IC50 (HOS; hos): > 5.12 µM | IC50 (SCH; sch): > 5.12 µM | IC50 (NCI-H526): > 5.12 µM | IC50 (SK-MEL-30): > 5.12 µM | IC50 (SW1088; Homo sapiens, SW1088): 2.48 µM | IC50 (SW1088; sw1088): 2.01 µM | IC50 (SK-MES-1; sk-mes-1): 0.79 µM and > 5.12 µM | IC50 (HCT-116; hct-116): > 5.12 µM | IC50 (CAL-27; Homo sapiens, CAL-27): > 5.12 µM | IC50 (CAL-27; cal-27): > 5.12 µM | IC50 (NCI-H2052; nci-h2052): > 5.12 µM and 0.915 µM | IC50 (NCI-H441): > 5.12 µM | IC50 (NCI-H69): > 5.12 µM | IC50 (T47D; Homo sapiens, T47D): 0.533 µM | IC50 (T47D; t47d): 0.938 µM | IC50 (KU-19-19; ku-19-19): > 5.12 µM | IC50 (SW1710; sw1710): 0.529 µM and 1.99 µM | IC50 (COLO-320-HSR): > 5.12 µM | IC50 (MFE-280; mfe-280): > 5.12 µM | IC50 (SW1463; sw1463): > 5.12 µM | IC50 (D-542MG; d-542mg): 1.85 µM and > 5.12 µM | IC50 (EW-3): > 5.12 µM | IC50 (QIMR-WIL): 3.97 µM | IC50 (LS-513; Homo sapiens, LS-513): > 5.12 µM | IC50 (LS-513; ls-513): > 5.12 µM | IC50 (Detroit 562; detroit 562): 1.05 µM and 2.13 µM
